Measured values taken from patent publication US8029770B2 (Rutgers, The State University, priority 2003, dated 2011).

Columns and labels:
[1] = system: UVB-induced skin tumors in tumor-bearing SKH-1 mice; assay: Growth of UVB-induced skin tumors in tumor-bearing SKH-1 mice; type: in vivo, mouse
Experimental: Female SKH-1 mice (7 to 8 weeks old) were treated with 30 mJ/cm^2 of UVB twice a week for 20 weeks. The UVB was stopped for 24 weeks. These tumor-bearing animals were divided into 2 groups (19 mice per group). […] The number (FIG. 1A) and size (FIG. 1B) of the tumors were recorded every 2 weeks.
The radius (r) was determined, and the volume was calculated by: volume=4πr^3/3.
Female SKH-1 mice were treated with 30 mJ/cm^2 of UVB twice a week for 20 weeks and UVB were stopped for 24 weeks. The resulting tumor-bearing animals were divided into 2 groups (19 mice per group). […] The number and size of the tumors were recorded every 2 weeks.

[2] = system: prostate tumor cell line PC-3; assay: Apoptosis in prostate tumor cell line PC-3; type: cell-based
[3] = system: apoptotic sunburn cells in the epidermis of FVB mice; assay: UVB-induced apoptotic sunburn cells in FVB mice, topical caffeine; type: in vivo, mouse; settings: 1.2 mg (6.2 μmole) in 100 μL acetone immediately, 0.5 and 2 hours after UVB 60 mJ/cm2; 6 hours
Description: Apoptotic sunburn cells were identified by changes in morphology and counted.

[4] = 4% in 100 mg DERMABASE once a day 5 days a week, 8 weeks (FIG. 1)

Row | SMILES | reduction in the number of tumors that developed per mouse vs DERMABASE [1, 4] | reduction in tumor volume per mouse vs DERMABASE [1, 4] | number and size of tumors ([1]; 4% in 100 mg DERMABASE, 8 weeks (FIG. 1A, 1B)) | apoptosis in PC-3 ([2]; 0.1, 0.2 or 0.5 mM for 96 hours) | pro-apoptotic effect compared with caffeine ([2]; PC-3, 0.1, 0.2 or 0.5 mM, 96 hours) | enhancement of UVB-induced increase of apoptotic sunburn cells [3]
1 | Cn1c(=O)c2c(ncn2C)n(C)c1=O.O=C([O-])c1ccccc1.[Na+] [Caffeine Sodium Benzoate, caffeine sodium benzoate] | 2 fold | ~3 fold | significantly reduced | dose-response relationship on apoptosis | more potent than caffeine at all dose levels tested | 
2 | Cn1c(=O)c2c(ncn2C)n(C)c1=O [Caffeine, caffeine] |  |  |  |  |  | 120-150%
